In patent US20090023721A1, “Novel Substituted Tetracyclic Tetrahydrofuran, Pyrrolidine and Tetrahydrothiophene Derivatives and Their Use as a Medicament” (priority 2005, published 2009):
Where two headings read alike, the source gives them in different places.

What was measured:
[1] = target: T1, human cloned 5-HT2A receptor, expressed in L929 cells (Homo sapiens, UniProt P28223); test: In vitro radioligand binding affinity for 5-HT2A receptor ([125I]R91150)
T1 construct: expressed in transfected cells; host or cells: L929 cells
T1 sequence (P28223 whole entry): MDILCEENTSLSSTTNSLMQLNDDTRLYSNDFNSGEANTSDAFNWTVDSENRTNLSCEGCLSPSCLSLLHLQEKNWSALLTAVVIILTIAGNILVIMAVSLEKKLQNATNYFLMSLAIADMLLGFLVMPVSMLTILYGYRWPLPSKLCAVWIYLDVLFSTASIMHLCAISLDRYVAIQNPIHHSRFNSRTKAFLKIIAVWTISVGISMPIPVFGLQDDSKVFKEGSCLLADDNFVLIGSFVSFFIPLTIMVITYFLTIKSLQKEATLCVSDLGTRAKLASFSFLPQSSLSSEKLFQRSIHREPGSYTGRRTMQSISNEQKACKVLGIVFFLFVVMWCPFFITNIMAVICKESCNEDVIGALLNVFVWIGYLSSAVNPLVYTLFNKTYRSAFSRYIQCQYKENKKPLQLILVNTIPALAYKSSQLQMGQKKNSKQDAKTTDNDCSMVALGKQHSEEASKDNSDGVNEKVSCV
Procedure: The interaction of the compounds of Formula (I) with 5-HT2A and 5-HT2C receptors was assessed in in vitro radioligand binding experiments. In general, a low concentration of a radioligand with a high binding affinity for the receptor is incubated with a sample of a tissue preparation enriched in a particular receptor (1 to 5 mg tissue) in a buffered medium (0.2 to 5 ml). During the incubation, the radioligands bind to the receptor. When equilibrium of binding is reached, the receptor bound radioactivity is separated from the non-bound radioactivity, and the receptor bound activity is counted. The interaction of the test compounds with the receptors is assessed in competition binding experiments. Various concentrations of the test compound are added to the incubation mixture containing the tissue preparation and the radioligand. Binding of the radioligand will be inhibited by the test compound in proportion to its binding affinity and its concentration. The affinities of the compounds for the 5-HT2 receptors were measured by means of radioligand binding studies conducted with: (a) human cloned 5-HT2A receptor, expressed in L929 cells using [^125I]R91150 as radioligand and (b) human cloned 5-HT2C receptor, expressed in CHO cells using [^3H]mesulergine as radioligand.

[2] = target: T2, human cloned 5-HT2C receptor, expressed in CHO cells (Homo sapiens, UniProt P28335); test: In vitro radioligand binding affinity for 5-HT2C receptor ([3H]mesulergine); settings: human cloned 5-HT2C receptor in CHO cells, [3H]mesulergine; read-out: h-5HT2C (converted)
T2 construct: expressed in transfected cells; host or cells: CHO cells
T2 sequence (P28335 33-458): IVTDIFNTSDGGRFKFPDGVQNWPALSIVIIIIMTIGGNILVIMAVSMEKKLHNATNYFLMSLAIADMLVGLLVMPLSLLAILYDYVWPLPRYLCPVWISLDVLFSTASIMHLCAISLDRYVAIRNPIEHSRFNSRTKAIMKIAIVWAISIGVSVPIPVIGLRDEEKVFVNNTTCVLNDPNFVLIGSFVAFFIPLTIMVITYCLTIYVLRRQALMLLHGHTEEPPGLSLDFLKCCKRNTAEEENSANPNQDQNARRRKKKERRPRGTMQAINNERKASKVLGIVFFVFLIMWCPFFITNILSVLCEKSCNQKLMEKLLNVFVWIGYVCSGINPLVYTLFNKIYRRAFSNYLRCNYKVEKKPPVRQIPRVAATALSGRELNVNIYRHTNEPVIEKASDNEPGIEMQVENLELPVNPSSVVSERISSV
Procedure: The interaction of the compounds of Formula (I) with 5-HT2A and 5-HT2C receptors was assessed in in vitro radioligand binding experiments. […] During the incubation, the radioligands bind to the receptor. When equilibrium of binding is reached, the receptor bound radioactivity is separated from the non-bound radioactivity, and the receptor bound activity is counted. The interaction of the test compounds with the receptors is assessed in competition binding experiments. Various concentrations of the test compound are added to the incubation mixture containing the tissue preparation and the radioligand. Binding of the radioligand will be inhibited by the test compound in proportion to its binding affinity and its concentration.

[3] = target: T3, human Dopamine D2L receptor (Homo sapiens, UniProt P14416); test: In vitro binding affinity for human D2L receptor ([3H]Spiperone); settings: human D2L receptor-transfected CHO cell membranes, [3H]Spiperone; read-out: h-D2L (converted)
T3 construct: expressed in transfected cells; host or cells: CHO cells (frozen membranes)
T3 sequence (P14416 whole entry): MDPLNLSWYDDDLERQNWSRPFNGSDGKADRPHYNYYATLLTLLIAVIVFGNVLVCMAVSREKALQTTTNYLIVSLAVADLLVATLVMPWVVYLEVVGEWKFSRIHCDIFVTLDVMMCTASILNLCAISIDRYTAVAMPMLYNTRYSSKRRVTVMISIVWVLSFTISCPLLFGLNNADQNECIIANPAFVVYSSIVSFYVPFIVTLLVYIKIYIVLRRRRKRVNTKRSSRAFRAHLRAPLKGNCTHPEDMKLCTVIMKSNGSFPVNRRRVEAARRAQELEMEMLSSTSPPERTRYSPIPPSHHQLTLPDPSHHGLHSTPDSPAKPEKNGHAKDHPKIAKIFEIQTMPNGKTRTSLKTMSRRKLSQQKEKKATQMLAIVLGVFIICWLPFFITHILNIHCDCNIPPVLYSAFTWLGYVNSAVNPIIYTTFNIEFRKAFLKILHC
Procedure: Frozen membranes of human Dopamine D2L receptor-transfected CHO cells were thawed, briefly homogenised using an Ultra-Turrax T25 homogeniser and diluted in Tris-HCl assay buffer containing NaCl, CaCl2, MgCl2, KCl (50, 120, 2, 1, and 5 mM respectively, adjusted to pH 7.7 with HCl) to an appropriate protein concentration optimised for specific and non-specific binding. Radioligand [^3H]Spiperone (NEN, specific activity ˜70 Ci/mmol) was diluted in assay buffer at a concentration of 2 nmol/L. Prepared radioligand (50 μl), along with 50 μl of either the 10% DMSO control, Butaclamol (10-6 mol/l final concentration), or compound of interest, was then incubated (30 min, 37° C.) with 400 μl of the prepared membrane solution. Membrane-bound activity was filtered through a Packard Filtermate harvester onto GF/B Unifilterplates and washed with ice-cold Tris-HCl buffer (50 mM; pH 7.7; 6×0.5 ml). Filters were allowed to dry before adding scintillation fluid and counting in a Topcount scintillation counter. Percentage specific bound and competition binding curves were calculated using S-Plus software (Insightful).

NET = target: T4, NET (Rattus norvegicus, UniProt Q9WTR4); test: In vitro determination of NET reuptake inhibition ([3H]Nixosetine binding, rat brain cortex membranes)
T4 construct: Cortex from rat brain was collected and homogenised; from tissue; host or cells: rat brain cortex membranes
T4 sequence (Q9WTR4 1-597): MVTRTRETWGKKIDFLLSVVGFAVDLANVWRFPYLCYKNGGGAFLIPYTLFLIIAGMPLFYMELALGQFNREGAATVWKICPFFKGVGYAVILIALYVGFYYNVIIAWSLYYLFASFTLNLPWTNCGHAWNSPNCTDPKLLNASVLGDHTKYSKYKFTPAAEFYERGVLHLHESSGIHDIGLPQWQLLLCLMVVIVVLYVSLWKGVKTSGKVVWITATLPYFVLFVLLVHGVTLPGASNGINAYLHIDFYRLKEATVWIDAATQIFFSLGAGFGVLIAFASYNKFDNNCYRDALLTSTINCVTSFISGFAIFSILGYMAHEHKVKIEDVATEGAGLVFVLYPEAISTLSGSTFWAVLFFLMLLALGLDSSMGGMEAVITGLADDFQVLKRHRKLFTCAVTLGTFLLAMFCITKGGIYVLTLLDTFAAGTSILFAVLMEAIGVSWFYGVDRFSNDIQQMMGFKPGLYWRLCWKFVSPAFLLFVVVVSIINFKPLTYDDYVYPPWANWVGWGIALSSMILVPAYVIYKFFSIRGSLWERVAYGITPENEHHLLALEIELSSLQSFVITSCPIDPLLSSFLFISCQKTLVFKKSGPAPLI
Procedure: Cortex from rat brain was collected and homogenised using an Ultra-Turrax T25 and a Dual homogeniser in ice-cold homogenising buffer containing Tris, NaCl and KCl (50 mM, 120 mM and 5 mM, respectively, pH 7.4) prior to dilution to an appropriate protein concentration optimised for specific and non-specific binding. […] Membrane-bound activity was detected by filtration through a Packard Filtermate harvester onto GF/B Unifilterplates, washed with ice-cold Tris-HCl buffer, containing NaCl and KCl (50 mM, 120 mM and 4 mM; pH 7.4; 6×0.5 ml). Filters were allowed to dry for 24 h before adding scintillation fluid. Scintillation fluid was allowed to saturate filters for 24 h before counting in a Topcount scintillation counter. Percentage specific bound and competition binding curves were calculated using S-Plus software (Insightful).

[4] = human cloned 5-HT2A receptor in L929 cells, [125I]R91150, read-out: h-5HT2A (converted)

| Compound | melting point [°C] | IC50 [1] [nM] | IC50 [2] [nM] | IC50 [3] [nM] | NET Reuptake Inhibition (NET) | IC50 [1, 4] [nM] | IC50 (NET) [nM] |
| --- | --- | --- | --- | --- | --- | --- | --- |
| CNC1CO[C@H]2c3cc(F)ccc3Cc3ccccc3[C@H]2C1 (stereo in doubt) [compound 33, (3R,4aR,13bR)-12-fluoro-N-methyl-2,3,4,4a,9,13b-hexahydrodibenzo[3,4:6,7]cyclo-hepta[1,2-b]pyran-3-amine] | 55 to 56 | – | – | – | – | – | – |
| Fc1ccc2c(c1)[C@@H]1[C@H](C[C@@H]3CNC(=S)N31)c1ccccc1C2 [compound 8, (4aS,13bR,14aR)-6-fluoro-1,4a,9,13b,14,14a-hexahydrodibenzo[3 ′,4′:6′,7′]cyclohepta-[1′,2′:4,5]pyrrolo[1,2-c]imidazole-3(2H)-thione] | 150 to 151 | 85.1 | 251 | > 10000 | 5.66 | – | – |
| O[C@H]1CO[C@H]2c3cc(F)ccc3Cc3ccccc3[C@H]2C1 [compound 29, (3R,4aR,13bR)-12-fluoro-2,3,4,4a,9,13b-hexahydrodibenzo[3,4:6,7]cyclohepta[1,2-b]-pyran-3-ol] | 59 to 61 | – | – | – | – | – | – |
| N[C@@H]1CO[C@H]2c3cc(F)ccc3Cc3ccccc3[C@H]2C1 [compound 30, (3S,4aR,13bR)-12-fluoro-2,3,4,4a,9,13b-hexahydrodibenzo[3,4:6,7]cyclohepta[1,2-b]pyran-3-amine] | 74 to 76 | – | 145 | > 1000 | – | 269 | 302 |
| O=C1CO[C@H]2c3cc(F)ccc3Cc3ccccc3[C@H]2C1 [compound 31, (4aR,13bR)-12-fluoro-4,4a,9,13b-tetrahydrodibenzo[3,4:6,7]cyclohepta[1,2-b]pyran-3(2H)-one] | 146 to 148 | – | – | – | – | – | – |
| CN(C)[C@@H]1CO[C@H]2c3cc(F)ccc3Cc3ccccc3[C@H]2C1 [compound 32, (3S,4aR,13bR)-12-fluoro-N,N-dimethyl-2,3,4,4a,9,13b-hexahydrodibenzo[3,4:6,7]-cyclohepta[1,2-b]pyran-3-amine] | 58 to 59 | – | 132 | > 1000 | – | 676 | 19.5 |
| CN(C)C[C@H]1C[C@@H]2c3ccccc3Cc3ccc(F)cc3[C@H]2N1CCO [compound 39, 2-((2R,3aR,12bS)-2-[(dimethylamino)methyl]-11-fluoro-3,3a,8,12b-tetrahydrodibenzo-[3,4:6,7]cyclohepta[1,2-b]pyrrol-1(2H)-yl)ethanol] | 88 to 90 | – | 46.8 | > 1000 | – | 87.1 | 126 |
